Reference: BindingDB's records for doi:10.1016/j.bmcl.2014.06.001 (Tohoku Pharmaceutical University, 2014)

Test: Inhibition of Wistar rat intestinal maltase assessed as inhibition of D-glucose release after 30 mins by spectrophotometry

IC50: 0.17 µM
Structure (SMILES): OC[C@@H]1N[C@@H](CCCCc2ccc(O)cc2)[C@H](O)[C@H]1O
